Laboratory results reported in patent publication US20060100154A1, “Long-acting gonadotropin-releasing hormone analogs and methods of use thereof” (YEDA RESEARCH AND DEVELOPMENT CO, priority 2005, published 2006).
Square brackets hold non-standard residues; d marks the D form. Peptide text beside a SMILES is read from it. * marks the point of attachment. NQ = N-(2-chloro-1,4-naphthoquinonyl)-β-alanine, O=C1C(Cl)=C(NCCC(=O)*)C(=O)c2ccccc21; Glutaryl(OAqm) = O=C(CCCC(=O)*)OCc1ccc2c(c1)C(=O)c1ccccc1C2=O; X1 = O=C1c2cc(O)cc(O)c2C(=O)c2c(O)cc(C(=O)*)cc21; d(pGlu) = O=C1CC[C@H](C(=O)O)N1; pGlu = O=C1CC[C@@H](C(=O)O)N1; Emo = not defined here

Legend:
[1] = literature ref 5; cited from earlier work
αT3-1 cells [2] = experiment: DNA fragmentation assay; type: cell-based, mouse; details: 10 μM, FIG. 10
Description: FIG. 10. DNA cleavage in cells treated with [D-Lys^6(Emo)]GnRH and emodic acid. αT3-1 cells were incubated; in darkness with 10 μM of the tested compounds, washed and illuminated. After 24 h of incubation DNA was isolated and analyzed by gel electrophoresis. Lanes 1, 3 and 5 represent DNA of cells treated with 1% DMSO in PBS, emodic acid or [D-Lys^6(Emo)]GnRH, respectively, followed by illumination. Lane 2, 4 and 6 represent cells treated with 1% DMSO in PBS, emodic acid, or [D-Lys^6(Emo)]GnRH, respectively, in darkness.
αT3-1 cells (×10^6/dish) were incubated in phenol red and serum free complete medium (37° C., 5% CO2) with the tested compounds for 5 h in the dark. Cells were then washed with PBS (×3) and illuminated or remained in darkness as described earlier. The media were then replaced by complete medium and cells were incubated for additional 24 h. DNA was then isolated, using Wizard® genomic DNA purification kit (Promega, Madison, Wis.) following the company's protocol and analyzed by gel electrophoresis (0.4% cross linked agarose, ethidium bromide staining).

[3] = biological target: T1, human serum albumin (HSA) (Homo sapiens, UniProt P02768); experiment: Binding to HSA; type: in vitro ADME; details: 37° C., 3 h; FIG. 8
T1 construct: purchased Sigma, St. Louis, Mo
T1 sequence (P02768 25-609): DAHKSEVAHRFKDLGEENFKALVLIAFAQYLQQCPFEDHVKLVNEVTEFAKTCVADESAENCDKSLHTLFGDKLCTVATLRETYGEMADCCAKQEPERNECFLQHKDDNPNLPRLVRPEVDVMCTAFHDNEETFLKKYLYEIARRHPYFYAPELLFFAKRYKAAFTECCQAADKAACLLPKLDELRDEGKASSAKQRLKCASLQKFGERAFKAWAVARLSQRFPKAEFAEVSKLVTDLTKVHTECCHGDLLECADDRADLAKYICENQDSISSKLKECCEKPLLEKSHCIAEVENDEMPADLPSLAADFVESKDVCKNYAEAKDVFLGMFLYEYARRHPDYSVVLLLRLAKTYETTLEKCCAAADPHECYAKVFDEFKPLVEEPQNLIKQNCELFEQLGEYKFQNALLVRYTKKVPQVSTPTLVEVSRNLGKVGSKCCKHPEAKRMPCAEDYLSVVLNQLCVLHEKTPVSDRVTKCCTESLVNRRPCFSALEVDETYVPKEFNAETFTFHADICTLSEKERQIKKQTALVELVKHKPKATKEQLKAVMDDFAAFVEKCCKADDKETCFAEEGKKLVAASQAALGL
Description: The concentration of HSA in the solution was determined using a molar extinction coefficient of 39,000 M^−1 cm^−1 at 277.5 nm^33. The unbound compound was then separated from the HSA solution by applying it on to a Centricon® concentrator column (Amicon Inc., Beverly, Mass.) with a band pass membrane of […] according to the manufacture's protocol. The HSA bound compound (˜20 μL) was then precipitated by adding it to acetonitrile (1 mL). The supernatant was kept and the precipitate was dissolved in PBS (100 μL) and re-precipitated. The combined supernatants were evaporated, the residue was dissolved in water containing 0.1% TFA (buffer A) and analyzed by HPLC to determine the amount of the tested compounds. Results represent the mean of two experiments (FIG. 8).

αT3-1 cells [4] = experiment: In vitro toxicity / phototoxicity (XTT cell survival); type: cell-based, mouse
Description: αT3-1 cells (50,000 cells/well) were plated in 96-well tissue culture plates in 0.1 mL of complete medium. After 24 h the medium was changed and cells were incubated in the same medium (without serum and phenol red) containing different concentrations of the tested compounds for 4 h at 37° C. The cells were then washed (×3) with PBS and illuminated (λmax=400 nm) in PBS. The fluence rate was 14.3 mW cm^−2 with a total fluence of 17 J cm^−2. Following illumination the media were replaced by complete medium and the plates were incubated for additional 24 h at 37° C. Cell survival was determined using the XTT (Biological Industries, Beit-Haemek, Israel) kit following the manufacture's protocol. Values are expressed as % survival.

[5] = Relative hydrophobicity by elution from RP-18 HPLC column; type: physicochemical; details: percent of buffer B in which the analog was eluted from RP-18 column
Text: All chemicals and reagents were of analytical grade. Rink amide resin, 9-fluorenylmethoxycarbonyl (Fmoc) protected amino acid derivatives, and all the reagents for solid-phase peptide synthesis were purchased from Novabiochem (Läufelfingen, Switzerland). Side-chain protecting groups employed for peptide synthesis were as follows: Arg, 2,2,4,6,7-pentamethyldihydrobenzofuran-5-sulfonyl (Pbf); His, trityl (Trt); D-Lys, 4-methyltrityl (Mtt) or tert-butyloxycarbonyl (Boc); Trp, tert-butyloxycarbonyl (Boc); Ser and Tyr, tert-butyl (tBu). Reversed phase HPLC was performed on a Spectra-Physics SP-8800 liquid chromatography system equipped with an Applied Biosystems 757 variable wavelength absorbance detector. HPLC prepacked columns were: Lichrocart, containing Lichrosorb RP-18 (250×10 mm; 7 μm, Merck, Darmstadt, Germany) for semi-preparative purification and Lichrospher 100 RP-18 (250×4 mm; 5 μm, Merck, Darmstadt, Germany) and wide pore butyl C4 (250×4.6 mm; 5 μm, J. T. Baker Inc., Phillipsburg, N.J.) for analytical purposes. HPLC purification and analysis were achieved by using a linear gradient established between 0.1% trifluoroacetic acid […] in water as buffer A and 0.1% TFA in 75% aqueous acetonitrile as buffer B. Eluent composition was 10-100% B over 40 mlin, using RP-18 column, and a gradient of 0-100% B over 40 min employing a wide pore butyl (C4) column. N-(2noro-1,4-naphtoqumonyl)-β-alanine (NQ), 1,6,8-Trihydroxy-3-carboxylic acid-anthraquinone (Emo) and 2-hydroxymethyl-anthraquinone hemiglutarate (AntrQ) were synthesized as described^14,24,27 (for chemical structure see FIG. 1).

LH release = experiment: In vivo LH release after intraperitoneal administration; set-up: species or system rat; details: 20 nmol/rat
Description: The ability of [D-Lys^6(Emo)]GnRH to bind GnRH receptors and promote LH release in vitro, prompted the evaluation of its in vivo activity.
Blood samples were withdrawn by cardiac puncture under light ether anesthesia at the indicated time intervals, and serum LH levels were determined by RIA as described above (FIG. 6). Results are the mean±SEM of LH concentrations in the serum of five animals/experimental group. The LH concentration was determined using three different dilutions of each serum sample. Similar results were obtained in two other experiments.

[6] = biological target: T2, rat pituitary GnRH receptors (Rattus norvegicus, UniProt P30969); experiment: Displacement binding assay with 125I[D-Lys6]GnRH on rat pituitary membranes; details: for binding affinity to GnRH receptors (in words): FIG. 11; for increase of binding affinity to GnRH receptors compared to the parent peptide: vs [D-Lys6]GnRH; for IC50: Table 3, estimated IC50, 125I-[D-Lys6]GnRH tracer
T2 construct: from tissue; host or cells: rat pituitary membranes (Wistar-derived rats)
T2 sequence (P30969 1-327): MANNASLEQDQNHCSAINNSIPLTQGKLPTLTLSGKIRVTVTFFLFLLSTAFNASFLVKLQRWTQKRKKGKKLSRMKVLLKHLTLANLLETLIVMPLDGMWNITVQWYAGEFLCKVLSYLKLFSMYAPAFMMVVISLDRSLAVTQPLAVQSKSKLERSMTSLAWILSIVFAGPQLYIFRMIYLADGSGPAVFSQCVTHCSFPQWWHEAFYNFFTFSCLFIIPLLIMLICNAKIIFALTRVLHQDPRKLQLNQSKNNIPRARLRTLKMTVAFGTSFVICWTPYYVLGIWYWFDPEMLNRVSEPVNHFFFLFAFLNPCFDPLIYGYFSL
Description: Specific binding was calculated by subtracting the non-specific binding from the maximal binding, determined in the absence of any competing peptide. Results are the mean of two experiments carried out in triplicates. SEM values are omitted for clarity (FIG. 3).

[7] = tested on: human breast and prostate cancer; details: literature ref 14; cited from earlier work
[8] = literature ref 14; cited from earlier work
[9] = biological target: T3, rat pituitary GnRH receptor (rat, UniProt P30969 1-327); experiment: displacement of 125I[D-Lys6]GnRH from proestrous rat pituitary membranes
T3 construct: whole, on cells; Native receptor; also called GnRH receptors; rat pituitary receptors
T3 sequence (looked up): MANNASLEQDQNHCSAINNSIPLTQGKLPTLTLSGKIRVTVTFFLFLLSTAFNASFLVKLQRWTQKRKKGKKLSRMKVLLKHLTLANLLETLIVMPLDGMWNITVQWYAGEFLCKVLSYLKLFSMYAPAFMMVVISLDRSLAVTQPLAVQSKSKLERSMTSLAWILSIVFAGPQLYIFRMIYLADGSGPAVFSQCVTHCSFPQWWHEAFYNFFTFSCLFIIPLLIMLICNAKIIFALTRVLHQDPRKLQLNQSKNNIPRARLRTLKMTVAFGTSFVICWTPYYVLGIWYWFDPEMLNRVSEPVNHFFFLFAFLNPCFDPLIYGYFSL

[10] = biological target: T3, rat pituitary GnRH receptor; experiment: displacement of 125I[D-Lys6]GnRH from rat pituitary membranes
Description: Briefly, membranes were incubated for 90 min at 4° C. with ¹²⁵I[D-Lys⁶]GnRH and with the unlabeled peptides. Non-specific binding was defined as the residual binding in the presence of excess [D-Lys⁶]GnRH (1 μM). Specific binding was calculated by subtracting the non-specific binding from the maximal binding, determined in the absence of any competing peptide. Results are the mean of two experiments carried out in triplicates. SEM values are omitted for clarity (FIG. 3).

## pGlu-His-Trp-Ser-Tyr-Gly-Leu-Arg-Pro-Gly-NH2 [GnRH]
[1]
  half-life time in the general circulation: 2 to 4 min

## O=C(O)c1cc(O)c2c(c1)C(=O)c1cc(O)cc(O)c1C2=O [emodic acid]
αT3-1 cells [2]; darkness
  DNA fragmentation in the dark: did not cause any DNA fragmentation
αT3-1 cells [2]; illuminated
  DNA fragmentation upon illumination: induced DNA fragmentation
[3]
  binding to HSA: binds to HSA
αT3-1 cells [4]; 10 μM, illuminated, FIG. 9
  phototoxicity to αT3-1 cells: significant phototoxicity
αT3-1 cells [4]; incubated in the dark
  toxicity to αT3-1 cells in the dark: did not show any toxicity

## CC(C)C[C@H](NC(=O)[C@@H](CCCCN)NC(=O)[C@H](Cc1ccc(O)cc1)NC(=O)[C@H](CO)NC(=O)[C@H](Cc1c[nH]c2ccccc12)NC(=O)[C@H](Cc1c[nH]cn1)NC(=O)[C@@H]1CCC(=O)N1)C(=O)N[C@@H](CCCNC(=N)N)C(=O)N1CCC[C@H]1C(=O)NCC(N)=O [[D-Lys^6]GnRH]
[5]
  Hydrophobicity (% B): 37 % B
LH release
  increase in serum LH levels at higher dose: larger increase in serum LH levels

## [D-Pyr^1, D-Phe^2, D-Trp^3, D-Lys^6]GnRH ([d(pGlu)][dF][dW]SY[dK]LRPG-NH2; SMILES CC(C)C[C@H](NC(=O)[C@@H](CCCCN)NC(=O)[C@H](Cc1ccc(O)cc1)NC(=O)[C@H](CO)NC(=O)[C@@H](Cc1c[nH]c2ccccc12)NC(=O)[C@@H](Cc1ccccc1)NC(=O)[C@H]1CCC(=O)N1)C(=O)N[C@@H](CCCNC(=N)N)C(=O)N1CCC[C@H]1C(=O)NCC(N)=O)
[6]
  binding affinity to GnRH receptors (in words): lower binding affinity to GnRH receptor as compared to [D-Lys^6]GnRH

## CC(C)C[C@H](NC(=O)[C@@H](CCCCNC(=O)CCCC(=O)OCc1ccc2c(c1)C(=O)c1ccccc1C2=O)NC(=O)[C@H](Cc1ccc(O)cc1)NC(=O)[C@H](CO)NC(=O)[C@H](Cc1c[nH]c2ccccc12)NC(=O)[C@H](Cc1c[nH]cn1)NC(=O)[C@@H]1CCC(=O)N1)C(=O)N[C@@H](CCCNC(=N)N)C(=O)N1CCC[C@H]1C(=O)NCC(N)=O [[D-Lys^6(AntrQ)]GnRH, [D-Lys^6(2-hydroxymethyl-anthra-quinone hemiglutarate)] GnRH]
[5]
  Hydrophobicity (% B): 84 % B
[7]
  growth of human breast and prostate cancer: inhibited the growth
[6]
  increase of binding affinity to GnRH receptors compared to the parent peptide: 5 folds
[8]
  biological activity relative to the parent peptide: five-fold higher

## CC(C)C[C@H](NC(=O)[C@@H](CCCCNC(=O)c1cc(O)c2c(c1)C(=O)c1cc(O)cc(O)c1C2=O)NC(=O)[C@H](Cc1ccc(O)cc1)NC(=O)[C@H](CO)NC(=O)[C@@H](Cc1c[nH]c2ccccc12)NC(=O)[C@@H](Cc1ccccc1)NC(=O)[C@H]1CCC(=O)N1)C(=O)N[C@@H](CCCNC(=N)N)C(=O)N1CCC[C@H]1C(=O)NCC(N)=O [[D-Lys^6(Emo)]Antg, [D-Pyr^1, D-Phe^2, D-Trp^3, D-Lys^6(Emo)]GnRH] ([d(pGlu)][dF][dW]SY[dK](X1)LRPG-NH2)
[6]
  binding affinity to GnRH receptors (in words): lower binding affinity
  IC50: 150 nM

## CC(C)C[C@H](NC(=O)[C@@H](CCCCN)NC(=O)[C@H](Cc1ccc(O)cc1)NC(=O)[C@H](CO)NC(=O)[C@@H](Cc1c[nH]c2ccccc12)NC(=O)[C@@H](Cc1ccccc1)NC(=O)[C@H]1CCC(=O)N1)C(=O)N[C@@H](CCCNC(=N)N)C(=O)N1CCC[C@H]1C(=O)NCC(N)=O [[D-Lys^6]Antg, [D-Pyr^1, D-Phe^2, D-Trp^3, D-Lys^6]GnRH] ([d(pGlu)][dF][dW]SY[dK]LRPG-NH2)
[6]
  IC50: 45 nM

## CC(C)C[C@H](NC(=O)[C@@H](CCCCNC(=O)CCNC1=C(Cl)C(=O)c2ccccc2C1=O)NC(=O)[C@H](Cc1ccc(O)cc1)NC(=O)[C@H](CO)NC(=O)[C@H](Cc1c[nH]c2ccccc12)NC(=O)[C@H](Cc1c[nH]cn1)NC(=O)[C@@H]1CCC(=O)N1)C(=O)N[C@@H](CCCNC(=N)N)C(=O)N1CCC[C@H]1C(=O)NCC(N)=O [[D-Lys^6(NQ)]GnRH, [D-Lys^6(N-(2-chloro-1,4-naphthoquinonyl)-β-alanyl)]GnRH]
[5]
  Hydrophobicity (% B): 59 % B
[6]
  increase of binding affinity to GnRH receptors compared to the parent peptide: 2 folds

B1: [D-Lys^6(1,3,8-trihydroxy-6-carboxy-anthraquinone)]GnRH (peptide)
peptide: [pGlu]HWSY[dK](Emo)LRPG-NH2
modifications: not fully specified; printed as [D-Lys^6(1,3,8-trihydroxy-6-carboxy-anthraquinone)]GnRH; reading uncertain
notes: Emodic acid conjugate of [D-Lys6]GnRH, an agonist; also called [D-Lys^6(Emo)]GnRH; [D-(Emo)]GnRH
[9]
  IC50: 2.6 nM
[10]
  IC50: 0.25 nM

B2: [D-Lys^6(N-(2-chloro-1,4-naphthoquinonyl)-β-alanyl)]GnRH (peptide)
peptide: [pGlu]HWSY[dK](NQ)LRPG-NH2
notes: Quinone conjugate of [D-Lys6]GnRH; also called [D-Lys^6(NQ)]GnRH
[10]
  IC50: 0.09 nM

B3: [D-Lys^6(2-hydroxymethyl-anthraquinone hemiglutarate)]GnRH (peptide)
peptide: [pGlu]HWSY[dK](Glutaryl(OAqm))LRPG-NH2
notes: Quinone conjugate of [D-Lys6]GnRH; also called [D-Lys^6(AntrQ)]GnRH; [D-Lys^6(AntQ)]GnRH
[10]
  IC50: 0.02 nM
